Where a SMILES comes first, the peptide text is derived from it. Bridges are numbered along the chain shown (N, C = ends). [ ]: non-standard residue; d: D form. hPhe(3-Cl-4-CF3) = N[C@@H](CCc1ccc(C(F)(F)F)c(Cl)c1)C(=O)O; NPrPhe(4-CF3) = CCCN[C@@H](Cc1ccc(C(F)(F)F)cc1)C(=O)O; NMeGly(cPent) = CN[C@H](C(=O)O)C1CCCC1; Pro(4,4-F2) = O=C(O)[C@@H]1CC(F)(F)CN1; Hyp = O=C(O)[C@@H]1C[C@@H](O)CN1; NMeL = CN[C@@H](CC(C)C)C(=O)O; Ac5c = NC1(C(=O)O)CCCC1; Ac4c = NC1(C(=O)O)CCC1; NEtG = CCNCC(=O)O; Sar = CNCC(=O)O
How the values were obtained:
[1] = target: GDP-bound HRAS wild-type protein (Homo sapiens, UniProt P01112); assay: Binding to HRAS by surface plasmon resonance (SPR), Single Cycle Kinetics; details: KD ratio HRAS/KRAS, SPR
[2] = target: GDP-bound NRAS wild-type protein (Homo sapiens, UniProt P01111); assay: Binding to NRAS by surface plasmon resonance (SPR), Single Cycle Kinetics; details: KD ratio NRAS/KRAS, SPR
Chain of GDP-bound NRAS wild-type protein (P01111 whole entry): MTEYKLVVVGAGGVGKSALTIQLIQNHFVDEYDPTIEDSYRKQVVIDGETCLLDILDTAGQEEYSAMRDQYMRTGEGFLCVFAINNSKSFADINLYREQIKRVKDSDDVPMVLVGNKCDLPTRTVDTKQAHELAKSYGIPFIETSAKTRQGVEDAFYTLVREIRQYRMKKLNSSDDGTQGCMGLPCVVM

Chain of GDP-bound HRAS wild-type protein (P01112 whole entry): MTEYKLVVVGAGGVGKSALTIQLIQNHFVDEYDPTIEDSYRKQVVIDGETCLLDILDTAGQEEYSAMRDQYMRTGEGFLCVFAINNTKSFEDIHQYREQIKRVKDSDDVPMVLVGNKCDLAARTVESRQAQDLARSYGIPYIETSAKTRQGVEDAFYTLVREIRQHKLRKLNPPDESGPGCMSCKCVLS

Row | Structure (SMILES) | HRAS/KRAS (ratio of KD for GDP-bound HRAS wild-type to KD for KRAS) [1] | NRAS/KRAS (ratio of KD for GDP-bound NRAS wild-type to KD for KRAS) [2]
1 | CCCN1C(=O)CN(C)C(=O)CN(C)C(=O)[C@H]([C@@H](C)CC)NC(=O)[C@H](CC(C)C)N(C)C(=O)C[C@@H](C(=O)N(C)C)NC(=O)[C@H](C2CCCC2)N(C)C(=O)C2(CCCC2)NC(=O)[C@@H]2CC(F)(F)CN2C(=O)[C@H](CCc2ccc(C(F)(F)F)c(Cl)c2)NC(=O)CN(C)C(=O)[C@@H]1Cc1ccc(C(F)(F)F)cc1 [PP0357] ([NMeL]I[Sar][Sar][NPrPhe(4-CF3)][Sar][hPhe(3-Cl-4-CF3)][Pro(4,4-F2)][Ac5c][NMeGly(cPent)]D-NMe2; lactam N-11) | B (a compound having 3 or more and less than 10 is denoted as B) | B (a compound having 3 or more and less than 10 is denoted as B)
2 | CCCN1C(=O)CN(C)C(=O)CN(C)C(=O)[C@H]([C@@H](C)CC)NC(=O)[C@H](CC(C)C)N(C)C(=O)C[C@@H](C(=O)N(C)C)NC(=O)[C@H](C2CCCC2)N(C)C(=O)C2(CCC2)NC(=O)[C@@H]2CC(F)(F)CN2C(=O)[C@H](CCc2ccc(C(F)(F)F)c(Cl)c2)NC(=O)CN(C)C(=O)[C@@H]1Cc1ccc(C(F)(F)F)cc1 [PP0358] ([NMeL]I[Sar][Sar][NPrPhe(4-CF3)][Sar][hPhe(3-Cl-4-CF3)][Pro(4,4-F2)][Ac4c][NMeGly(cPent)]D-NMe2; lactam N-11) | C (A compound having a KD ratio of 0.1 or more and less than 3 is denoted as C) | B (a compound having 3 or more and less than 10 is denoted as B)
3 | CCCN1C(=O)CN(C)C(=O)CN(C)C(=O)[C@H]([C@@H](C)CC)NC(=O)[C@H](CC(C)C)N(C)C(=O)C[C@@H](C(=O)N(C)C)NC(=O)[C@H](C2CCCC2)N(C)C(=O)C2(CCCC2)NC(=O)[C@@H]2C[C@@H](OCC)CN2C(=O)[C@H](CCc2ccc(C(F)(F)F)c(Cl)c2)NC(=O)CN(C)C(=O)[C@@H]1Cc1ccc(C(F)(F)F)cc1 [PP0359] ([NMeL]I[Sar][Sar][NPrPhe(4-CF3)][Sar][hPhe(3-Cl-4-CF3)][Hyp](Et)[Ac5c][NMeGly(cPent)]D-NMe2; lactam N-11) | B (a compound having 3 or more and less than 10 is denoted as B) | B (a compound having 3 or more and less than 10 is denoted as B)
4 | CCCN1C(=O)CN(C)C(=O)CN(C)C(=O)[C@H]([C@@H](C)CC)NC(=O)[C@H](CC(C)C)N(C)C(=O)C[C@@H](C(=O)N(C)C)NC(=O)[C@H](C2CCCC2)N(C)C(=O)C2(CCC2)NC(=O)[C@@H]2C[C@@H](OCC)CN2C(=O)[C@H](CCc2ccc(C(F)(F)F)c(Cl)c2)NC(=O)CN(C)C(=O)[C@@H]1Cc1ccc(C(F)(F)F)cc1 [PP0360] ([NMeL]I[Sar][Sar][NPrPhe(4-CF3)][Sar][hPhe(3-Cl-4-CF3)][Hyp](Et)[Ac4c][NMeGly(cPent)]D-NMe2; lactam N-11) | C (A compound having a KD ratio of 0.1 or more and less than 3 is denoted as C) | B (a compound having 3 or more and less than 10 is denoted as B)
5 | CCCN1C(=O)CN(C)C(=O)CNC(=O)[C@H]([C@@H](C)CC)NC(=O)[C@H](CC(C)C)N(C)C(=O)C[C@@H](C(=O)N(C)C)NC(=O)[C@H](C2CCCC2)N(C)C(=O)C2(CCCC2)NC(=O)[C@@H]2CCCN2C(=O)[C@H](CCc2ccc(C(F)(F)F)c(Cl)c2)NC(=O)CN(C)C(=O)[C@@H]1Cc1ccc(C(F)(F)F)cc1 [PP0361] ([NMeL]IG[Sar][NPrPhe(4-CF3)][Sar][hPhe(3-Cl-4-CF3)]P[Ac5c][NMeGly(cPent)]D-NMe2; lactam N-11) | C (A compound having a KD ratio of 0.1 or more and less than 3 is denoted as C) | B (a compound having 3 or more and less than 10 is denoted as B)
6 | CCCN1C(=O)CN(C)C(=O)CNC(=O)[C@H]([C@@H](C)CC)NC(=O)[C@H](CC(C)C)N(C)C(=O)C[C@@H](C(=O)N(C)C)NC(=O)[C@H](C2CCCC2)N(C)C(=O)C2(CCC2)NC(=O)[C@@H]2CCCN2C(=O)[C@H](CCc2ccc(C(F)(F)F)c(Cl)c2)NC(=O)CN(C)C(=O)[C@@H]1Cc1ccc(C(F)(F)F)cc1 [PP0362] ([NMeL]IG[Sar][NPrPhe(4-CF3)][Sar][hPhe(3-Cl-4-CF3)]P[Ac4c][NMeGly(cPent)]D-NMe2; lactam N-11) | B (a compound having 3 or more and less than 10 is denoted as B) | B (a compound having 3 or more and less than 10 is denoted as B)
7 | CCCN1C(=O)CN(C)C(=O)CNC(=O)[C@H]([C@@H](C)CC)NC(=O)[C@H](CC(C)C)N(C)C(=O)C[C@@H](C(=O)N(C)C)NC(=O)[C@H](C2CCCC2)N(C)C(=O)C2(CCCC2)NC(=O)[C@@H]2CC(F)(F)CN2C(=O)[C@H](CCc2ccc(C(F)(F)F)c(Cl)c2)NC(=O)CN(C)C(=O)[C@@H]1Cc1ccc(C(F)(F)F)cc1 [PP0363] ([NMeL]IG[Sar][NPrPhe(4-CF3)][Sar][hPhe(3-Cl-4-CF3)][Pro(4,4-F2)][Ac5c][NMeGly(cPent)]D-NMe2; lactam N-11) | C (A compound having a KD ratio of 0.1 or more and less than 3 is denoted as C) | B (a compound having 3 or more and less than 10 is denoted as B)
8 | CCCN1C(=O)CN(C)C(=O)CNC(=O)[C@H]([C@@H](C)CC)NC(=O)[C@H](CC(C)C)N(C)C(=O)C[C@@H](C(=O)N(C)C)NC(=O)[C@H](C2CCCC2)N(C)C(=O)C2(CCC2)NC(=O)[C@@H]2CC(F)(F)CN2C(=O)[C@H](CCc2ccc(C(F)(F)F)c(Cl)c2)NC(=O)CN(C)C(=O)[C@@H]1Cc1ccc(C(F)(F)F)cc1 [PP0364] ([NMeL]IG[Sar][NPrPhe(4-CF3)][Sar][hPhe(3-Cl-4-CF3)][Pro(4,4-F2)][Ac4c][NMeGly(cPent)]D-NMe2; lactam N-11) | B (a compound having 3 or more and less than 10 is denoted as B) | B (a compound having 3 or more and less than 10 is denoted as B)
9 | CCCN1C(=O)CN(C)C(=O)CNC(=O)[C@H]([C@@H](C)CC)NC(=O)[C@H](CC(C)C)N(C)C(=O)C[C@@H](C(=O)N(C)C)NC(=O)[C@H](C2CCCC2)N(C)C(=O)C2(CCCC2)NC(=O)[C@@H]2C[C@@H](OCC)CN2C(=O)[C@H](CCc2ccc(C(F)(F)F)c(Cl)c2)NC(=O)CN(C)C(=O)[C@@H]1Cc1ccc(C(F)(F)F)cc1 [PP0365] ([NMeL]IG[Sar][NPrPhe(4-CF3)][Sar][hPhe(3-Cl-4-CF3)][Hyp](Et)[Ac5c][NMeGly(cPent)]D-NMe2; lactam N-11) | B (a compound having 3 or more and less than 10 is denoted as B) | B (a compound having 3 or more and less than 10 is denoted as B)
10 | CCCN1C(=O)CN(C)C(=O)CNC(=O)[C@H]([C@@H](C)CC)NC(=O)[C@H](CC(C)C)N(C)C(=O)C[C@@H](C(=O)N(C)C)NC(=O)[C@H](C2CCCC2)N(C)C(=O)C2(CCC2)NC(=O)[C@@H]2C[C@@H](OCC)CN2C(=O)[C@H](CCc2ccc(C(F)(F)F)c(Cl)c2)NC(=O)CN(C)C(=O)[C@@H]1Cc1ccc(C(F)(F)F)cc1 [PP0366] ([NMeL]IG[Sar][NPrPhe(4-CF3)][Sar][hPhe(3-Cl-4-CF3)][Hyp](Et)[Ac4c][NMeGly(cPent)]D-NMe2; lactam N-11) | B (a compound having 3 or more and less than 10 is denoted as B) | B (a compound having 3 or more and less than 10 is denoted as B)
11 | CCCN1C(=O)CN(C)C(=O)CN(CC)C(=O)[C@H]([C@@H](C)CC)NC(=O)[C@H](CC(C)C)N(C)C(=O)C[C@@H](C(=O)N(C)C)NC(=O)[C@H](C2CCCC2)N(C)C(=O)C2(CCCC2)NC(=O)[C@@H]2CCCN2C(=O)[C@H](CCc2ccc(C(F)(F)F)c(Cl)c2)NC(=O)CN(C)C(=O)[C@@H]1Cc1ccc(C(F)(F)F)cc1 [PP0367] ([NMeL]I[NEtG][Sar][NPrPhe(4-CF3)][Sar][hPhe(3-Cl-4-CF3)]P[Ac5c][NMeGly(cPent)]D-NMe2; lactam N-11) | B (a compound having 3 or more and less than 10 is denoted as B) | B (a compound having 3 or more and less than 10 is denoted as B)
12 | CCCN1C(=O)CN(C)C(=O)CN(CC)C(=O)[C@H]([C@@H](C)CC)NC(=O)[C@H](CC(C)C)N(C)C(=O)C[C@@H](C(=O)N(C)C)NC(=O)[C@H](C2CCCC2)N(C)C(=O)C2(CCC2)NC(=O)[C@@H]2CCCN2C(=O)[C@H](CCc2ccc(C(F)(F)F)c(Cl)c2)NC(=O)CN(C)C(=O)[C@@H]1Cc1ccc(C(F)(F)F)cc1 [PP0368] ([NMeL]I[NEtG][Sar][NPrPhe(4-CF3)][Sar][hPhe(3-Cl-4-CF3)]P[Ac4c][NMeGly(cPent)]D-NMe2; lactam N-11) | B (a compound having 3 or more and less than 10 is denoted as B) | B (a compound having 3 or more and less than 10 is denoted as B)
13 | CCCN1C(=O)CN(C)C(=O)CN(CC)C(=O)[C@H]([C@@H](C)CC)NC(=O)[C@H](CC(C)C)N(C)C(=O)C[C@@H](C(=O)N(C)C)NC(=O)[C@H](C2CCCC2)N(C)C(=O)C2(CCCC2)NC(=O)[C@@H]2CC(F)(F)CN2C(=O)[C@H](CCc2ccc(C(F)(F)F)c(Cl)c2)NC(=O)CN(C)C(=O)[C@@H]1Cc1ccc(C(F)(F)F)cc1 [PP0369] ([NMeL]I[NEtG][Sar][NPrPhe(4-CF3)][Sar][hPhe(3-Cl-4-CF3)][Pro(4,4-F2)][Ac5c][NMeGly(cPent)]D-NMe2; lactam N-11) | C (A compound having a KD ratio of 0.1 or more and less than 3 is denoted as C) | B (a compound having 3 or more and less than 10 is denoted as B)

— patent US20250230193A1, “CYCLIC COMPOUND HAVING SELECTIVE KRAS INHIBITORY EFFECT ON HRAS AND NRAS” (CHUGAI SEIYAKU KABUSHIKI KAISHA, priority 2022, published 2025)
